The text below walks through data of patent EP1306084A1, “Compositions for the control of parasitic infestations in fish” (Alpharma AS, priority 1998, dated 1999).

In assay [1] the test system is sea lice. The assay is described as follows: Field trial: medicated feed before sea transfer, recapture of tagged fish, sea lice infection (Example 3). The assay is classed as in vivo, wild sea trout (Salmo trutta). As to conditions: about 3 mg per fish per day for six days in feed before sea transfer; 13 treated fish caught June 20 to August 7. The procedure: (§1) About 2,000 wild sea trout (Salmo trutta) were divided into two groups and marked with Carlin tags in two different colours (yellow or red) so that individuals of the groups could easily be distinguished from each other when observed in the water. The group with yellow Carlin tags were given feed containing hexaflumuron. The dose was about 3 mg of hexaflumuron per fish per day for six days. The feeding was done the last week before they were transferred to the sea in the beginning of May. The control group had red Carlin tags and was fed ordinary fish feed until sea transfer. Both groups of fish were transferred to the sea 200 metres from the river mouth of the Bondhus River in Hordaland in Norway. From sea transfer (May 8) until August 7, neighbouring rivers and estuaries round these rivers were examined every week, using fishing by application of high voltage and net fishing.
Tagged fish was not caught until June 20. From June 20 to August 7, 22 control fish and 13 treated fish were caught. The untreated fish were caught in the lower parts of the rivers and were heavily infected with sea lice. The 13 treated fish were exclusively caught in the estuary around the rivers (in sea water), none were caught in freshwater.

Assay [2] is described as follows: Field trial: weight and length of recaptured tagged fish (Example 3). The class given is in vivo, wild sea trout (Salmo trutta). As to conditions: treated fish caught June 20 to August 7. The procedure:
as §1
The following average lengths and weights were recorded for the fish that were caught during the period: • Control fish: Average weight 50.4 ± 48.8 grams. Average length 19.7 ± 13.3 cm. • Treated fish: Average weight 87.1 ± 69.6 grams. Average length 35.9 ± 19.1 cm.

Assay [3] relates to sea lice. Nature of the assay: Oral treatment in freshwater before sea transfer, sea lice counts after natural infection (Example 4). The class given is in vivo, salmon (Salmo salar). The procedure: (§2) The treatment dosage was 9 mg hexaflumuron per kg fish per day for 10 days. This is indicated by "Groups/Timepoints" in the figure; • Figure 2 relates to the trial in Example 2 that was carried out on Atlantic salmon (Salmo salar). […] The treatment dosage varied between 3 - 9 mg hexaflumuron and 9- 12 mg fluazuron per kg fish per day for 7 days. This is indicated by "Groups/Timepoints" in the diagram. […] The treated groups are compared to an untreated control group. The treatment dosage was 4 mg hexaflumuron per kg fish per day for 5 days. This is indicated by "Groups/Timepoints" in the figure. Cage 2 = controls, Cage 4-6 = treated groups, 16.6.97 = time point for sea transfer and 5.8.97= controls treated by bathing with deltamethrin; • Figure 4 relates to the trial described in Example 5, which was carried out on sea trout (Salmo trutta). […] The treated groups are compared with an untreated control group. The dosage for oral treatment was 4 mg hexaflumuron per kilo fish per day for 5 days, and 5 ppm hexaflumuron as a 30 minute bath treatment. This is indicated by "Groups/Timepoints" in the figure. Cage 1.4 = Controls, cage 1.3 = Oral treatment, cage 1.2 = Bath treatment. […] The treated groups are compared with an untreated control group, and one group that has been treated orally with teflubenzuron (10 mg/kg of teflubenzuron per kg fish per day for 7 days). The dosage for oral treatment was 5.6 mg hexaflumuron per kg fish per day for 7 days, and 5 ppm hexaflumuron as a 30 minute bath treatment. […] End of treatment: 22.10.97, Sea transfer: 23.10.97. […]
About 2,500 salmon (Salmo salar) of average weight 42 grams were treated orally with a daily dosage of 4 mg hexaflumuron per kilo fish for 5 days. […] The number of lice on 10 fish from each cage were counted every third week to check if there was any difference in the number of lice in the cages. […]

Assay [4] relates to sea lice. The assay is described as follows: Injection of hexaflumuron in multivalent vaccine formulations, sea lice counts after sea water transfer (Example 10). The assay is classed as in vivo, salmon (Salmo salar). The procedure: as §2, with “23.10.97. T1 = 3 weeks post end of treatment, T2 = 5 weeks post end of treatment, T3 = 9 weeks post end of treatment, T4 = 12 weeks post end of treatment; • Figure 6 relates to the trial in Example 6 at time points 4-6, with the same trial parameters as for Figure 5.” for “23.10.97.”
Following transfer to sea water, the fish were exposed to natural sea lice infestation. Every three weeks lice were counted on 10 fish of each group to assess if the number of lice between the various groups differed. […]

[5] abbreviates: injected in vaccine formulations.

Each structure is given as a SMILES string. Where only a bound is given, the exact number is not on record here.

Take `O=C(NC(=O)c1c(F)cccc1F)Nc1cc(Cl)c(OC(F)(F)C(F)F)c(Cl)c1` [hexaflumuron]: the “signs of sea lice infections in recaptured fish” value in the assay on sea lice [1] is on record as “None of the treated fish showed signs of sea lice infections”. For the same compound, the Average length in assay [2] (control fish 19.7 ± 13.3) is reported as 35.9 ± 19.1 cm. For the same compound, in assay [2] (control fish 50.4 ± 48.8), the Average weight was found to be 87.1 ± 69.6 grams. In the assay with sea lice [3] (oral 4 mg per kilo fish daily for 5 days in freshwater), the “protection from sea lice infestation after transfer to sea” value is on record as 6-9 weeks. In addition, in the assay with sea lice [3] (oral 4 mg per kilo fish daily for 5 days, 3 and 6 weeks after sea transfer), the “number of lice larger than Chalimus II versus control” value was “significantly lower”. The “number of sea lice versus control” value with sea lice [4] (9 and 12 weeks after sea water transfer (T3 and T4), 3 formulations, 25 mg per ml vaccine) is reported as “significantly lower”. In the assay on sea lice [4] (setting [5]), the “protection against recurrent infestation after injection” value is not below 18 weeks and the “protection against recurrent infestation after sea water transfer” value is recorded as “at least 12 weeks”.
